Laboratory results published in the supplement of paper PMC10627819.

Key:
S. aureus DSM 20231 [1] = experiment: fitness (endpoint OD595 vs no drug) (fraction); higher = more growth
Procedure, shortened: (§1)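 Bacterial growth was followed in 384-well plates seeded at OD595 0.01, with 30 µl per well, or 55 µl for S. pneumoniae, in TSB, LB Lennox or CY at 37 °C. OD595 was read every 30 min for 14 h, and each reading had the first reading subtracted as background. Fitness is the background-corrected optical density at entry into stationary phase divided by the robust mean of the no-drug control wells. This ratio is capped at 1.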

S. pneumoniae D39V [2] = experiment: as above
Procedure, shortened: as §1

B. subtilis 168 [3] = experiment: Bliss interaction score (quartile over a dose matrix) (fitness difference); higher = more antagonism (negative = synergy)
Procedure, shortened: (§2)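 The Bliss score subtracts expected fitness, the product of the single-drug fitness values, from observed fitness. Fitness is plate-normalised OD595 at entry into stationary phase, relative to the robust no-drug mean and capped at 1, with single-drug fitness inferred from combinations. Summaries are quartiles over technical, biological and donor/recipient replicates.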

S. aureus DSM 20231 [4] = experiment: as above
Procedure, shortened: as §2

S. aureus Newman = experiment: as above
Procedure, shortened: as §2

S. pneumoniae D39V [5] = experiment: as above
Procedure, shortened: as §2

B. subtilis 168 [6] = experiment: fitness (endpoint OD595 vs no drug) (fraction); higher = more growth
Procedure, shortened: as §1
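For Bliss interaction score (quartile over a dose matrix) in this document: first quartile when negative (synergy) and third quartile when positive (antagonism).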

CC(=O)NC[C@H]1CN(c2ccc(N3CCOCC3)c(F)c2)C(=O)O1 [Linezolid] + CN[C@H](CC(C)C)C(=O)N[C@H]1C(=O)N[C@@H](CC(N)=O)C(=O)N[C@H]2C(=O)N[C@H]3C(=O)N[C@H](C(=O)N[C@H](C(=O)O)c4cc(O)cc(O)c4-c4cc3ccc4O)[C@H](O)c3ccc(c(Cl)c3)Oc3cc2cc(c3O[C@@H]2O[C@H](CO)[C@@H](O)[C@H](O)[C@H]2O[C@H]2C[C@](C)(N)[C@H](O)[C@H](C)O2)Oc2ccc(cc2Cl)[C@H]1O [Vancomycin]
Settings	fitness
S. aureus DSM 20231 [1], first compound 0.125 µg/mL, partner 0.1875 µg/mL	0.897
S. aureus DSM 20231 [1], first compound 0.125 µg/mL, partner 0.375 µg/mL	0.936
S. aureus DSM 20231 [1], first compound 0.125 µg/mL, partner 0.75 µg/mL	0.943
S. aureus DSM 20231 [1], first compound 0.25 µg/mL, partner 0.1875 µg/mL	0.553
S. aureus DSM 20231 [1], first compound 0.25 µg/mL, partner 0.375 µg/mL	0.596
S. aureus DSM 20231 [1], first compound 0.25 µg/mL, partner 0.75 µg/mL	0.583
S. aureus DSM 20231 [1], first compound 0.5 µg/mL, partner 0.1875 µg/mL	0.204
S. aureus DSM 20231 [1], first compound 0.5 µg/mL, partner 0.375 µg/mL	0.18
S. aureus DSM 20231 [1], first compound 0.5 µg/mL, partner 0.75 µg/mL	0.215
S. pneumoniae D39V [2], first compound 0.105 µg/mL, partner 0.125 µg/mL	0.689
S. pneumoniae D39V [2], first compound 0.105 µg/mL, partner 0.25 µg/mL	0.0692
S. pneumoniae D39V [2], first compound 0.105 µg/mL, partner 0.5 µg/mL	0.0491
S. pneumoniae D39V [2], first compound 0.2 µg/mL, partner 0.03125 µg/mL	0.77
S. pneumoniae D39V [2], first compound 0.2 µg/mL, partner 0.0625 µg/mL	0.751
S. pneumoniae D39V [2], first compound 0.21 µg/mL, partner 0.125 µg/mL	0.573
S. pneumoniae D39V [2], first compound 0.21 µg/mL, partner 0.25 µg/mL	0.082
S. pneumoniae D39V [2], first compound 0.21 µg/mL, partner 0.5 µg/mL	0.0299
S. pneumoniae D39V [2], first compound 0.4 µg/mL, partner 0.03125 µg/mL	0.63
S. pneumoniae D39V [2], first compound 0.4 µg/mL, partner 0.0625 µg/mL	0.604
S. pneumoniae D39V [2], first compound 0.42 µg/mL, partner 0.125 µg/mL	0.339
S. pneumoniae D39V [2], first compound 0.42 µg/mL, partner 0.25 µg/mL	0.0579
S. pneumoniae D39V [2], first compound 0.42 µg/mL, partner 0.5 µg/mL	0.0734
S. pneumoniae D39V [2], first compound 0.8 µg/mL, partner 0.03125 µg/mL	0.302
S. pneumoniae D39V [2], first compound 0.8 µg/mL, partner 0.0625 µg/mL	0.255
S. pneumoniae D39V [2], first compound 0.8 µg/mL, partner 0.125 µg/mL	0.188

S. aureus DSM 20231 [1], first compound 1 µg/mL, one replicate
Settings	fitness
partner 0.1875 µg/mL	0.0273
partner 0.375 µg/mL	0.0396
partner 0.75 µg/mL	0.0452

Settings	Bliss interaction score
B. subtilis 168 [3]	0.0387
S. aureus DSM 20231 [4]	0.0467
S. aureus Newman	-0.044
S. pneumoniae D39V [5]	-0.13

CC(=O)NC[C@H]1CN(c2ccc(N3CCOCC3)c(F)c2)C(=O)O1 [Linezolid] + COc1c(N2C[C@@H]3CCCN[C@@H]3C2)c(F)cc2c(=O)c(C(=O)O)cn(C3CC3)c12 [Moxifloxacin]
one replicate
Settings	fitness
B. subtilis 168 [6], first compound 0.0625 µg/mL, partner 0.0312 µg/mL	0.0541
B. subtilis 168 [6], first compound 0.0625 µg/mL, partner 0.0625 µg/mL	0.0464
B. subtilis 168 [6], first compound 0.0625 µg/mL, partner 0.125 µg/mL	0.0299
S. aureus DSM 20231 [1], first compound 0.125 µg/mL, partner 0.06 µg/mL	0.712
S. aureus DSM 20231 [1], first compound 0.125 µg/mL, partner 0.12 µg/mL	0.535
S. aureus DSM 20231 [1], first compound 0.25 µg/mL, partner 0.06 µg/mL	0.655
S. aureus DSM 20231 [1], first compound 0.25 µg/mL, partner 0.12 µg/mL	0.536
S. aureus DSM 20231 [1], first compound 0.5 µg/mL, partner 0.06 µg/mL	0.44
S. aureus DSM 20231 [1], first compound 0.5 µg/mL, partner 0.12 µg/mL	0.368
S. aureus DSM 20231 [1], first compound 1 µg/mL, partner 0.0075 µg/mL	0.0168
S. aureus DSM 20231 [1], first compound 1 µg/mL, partner 0.015 µg/mL	0.0282
S. aureus DSM 20231 [1], first compound 1 µg/mL, partner 0.03 µg/mL	0.0258

Settings	fitness
B. subtilis 168 [6], first compound 0.125 µg/mL, partner 0.0312 µg/mL	0.0559
B. subtilis 168 [6], first compound 0.125 µg/mL, partner 0.0625 µg/mL	0.0387
B. subtilis 168 [6], first compound 0.125 µg/mL, partner 0.125 µg/mL	0.0364
B. subtilis 168 [6], first compound 0.125 µg/mL, partner 2 µg/mL	0.036
B. subtilis 168 [6], first compound 0.125 µg/mL, partner 4 µg/mL	0.0272
B. subtilis 168 [6], first compound 0.125 µg/mL, partner 8 µg/mL	0.0181
B. subtilis 168 [6], first compound 0.25 µg/mL, partner 0.0312 µg/mL	0.242
B. subtilis 168 [6], first compound 0.25 µg/mL, partner 0.0625 µg/mL	0.0554
B. subtilis 168 [6], first compound 0.25 µg/mL, partner 0.125 µg/mL	0.0577
B. subtilis 168 [6], first compound 0.25 µg/mL, partner 2 µg/mL	0.0241
B. subtilis 168 [6], first compound 0.25 µg/mL, partner 4 µg/mL	0.0237
B. subtilis 168 [6], first compound 0.25 µg/mL, partner 8 µg/mL	0.0144
B. subtilis 168 [6], first compound 0.5 µg/mL, partner 0.0312 µg/mL	0.044
B. subtilis 168 [6], first compound 0.5 µg/mL, partner 0.0625 µg/mL	0.0596
B. subtilis 168 [6], first compound 0.5 µg/mL, partner 0.125 µg/mL	0.0457
B. subtilis 168 [6], first compound 0.5 µg/mL, partner 2 µg/mL	0.0308
B. subtilis 168 [6], first compound 0.5 µg/mL, partner 4 µg/mL	0.021
B. subtilis 168 [6], first compound 0.5 µg/mL, partner 8 µg/mL	0.0223
S. aureus DSM 20231 [1], first compound 0.125 µg/mL, partner 0.0075 µg/mL	0.795
S. aureus DSM 20231 [1], first compound 0.125 µg/mL, partner 0.015 µg/mL	0.743
S. aureus DSM 20231 [1], first compound 0.125 µg/mL, partner 0.03 µg/mL	0.671
S. aureus DSM 20231 [1], first compound 0.25 µg/mL, partner 0.0075 µg/mL	0.541
S. aureus DSM 20231 [1], first compound 0.25 µg/mL, partner 0.015 µg/mL	0.5
S. aureus DSM 20231 [1], first compound 0.25 µg/mL, partner 0.03 µg/mL	0.582
S. aureus DSM 20231 [1], first compound 0.5 µg/mL, partner 0.0075 µg/mL	0.12
S. aureus DSM 20231 [1], first compound 0.5 µg/mL, partner 0.015 µg/mL	0.178
S. aureus DSM 20231 [1], first compound 0.5 µg/mL, partner 0.03 µg/mL	0.272
S. pneumoniae D39V [2], first compound 0.105 µg/mL, partner 0.0037 µg/mL	0.739
S. pneumoniae D39V [2], first compound 0.105 µg/mL, partner 0.0075 µg/mL	0.741
S. pneumoniae D39V [2], first compound 0.105 µg/mL, partner 0.015 µg/mL	0.73
S. pneumoniae D39V [2], first compound 0.2 µg/mL, partner 0.005 µg/mL	0.839
S. pneumoniae D39V [2], first compound 0.2 µg/mL, partner 0.01 µg/mL	0.858
S. pneumoniae D39V [2], first compound 0.2 µg/mL, partner 0.02 µg/mL	0.826
S. pneumoniae D39V [2], first compound 0.21 µg/mL, partner 0.0037 µg/mL	0.647
S. pneumoniae D39V [2], first compound 0.21 µg/mL, partner 0.0075 µg/mL	0.651
S. pneumoniae D39V [2], first compound 0.21 µg/mL, partner 0.015 µg/mL	0.624
S. pneumoniae D39V [2], first compound 0.4 µg/mL, partner 0.005 µg/mL	0.704
S. pneumoniae D39V [2], first compound 0.4 µg/mL, partner 0.01 µg/mL	0.715
S. pneumoniae D39V [2], first compound 0.4 µg/mL, partner 0.02 µg/mL	0.68
S. pneumoniae D39V [2], first compound 0.42 µg/mL, partner 0.0037 µg/mL	0.366
S. pneumoniae D39V [2], first compound 0.42 µg/mL, partner 0.0075 µg/mL	0.424
S. pneumoniae D39V [2], first compound 0.42 µg/mL, partner 0.015 µg/mL	0.449
S. pneumoniae D39V [2], first compound 0.8 µg/mL, partner 0.005 µg/mL	0.45
S. pneumoniae D39V [2], first compound 0.8 µg/mL, partner 0.02 µg/mL	0.461

Settings	Bliss interaction score
B. subtilis 168 [3]	0.0351
S. aureus DSM 20231 [4]	0.0931
S. aureus Newman	0.074
S. pneumoniae D39V [5]	0.0972
